The target in data set [1] is T1, ethylene-forming enzyme (EFE) (Pseudomonas savastanoi, UniProt P32021). Nature of the data set: anaerobic UV-vis difference titration. It is filed as binding.
The target in data set [2] is T1, ethylene-forming enzyme (EFE). Nature of the data set: anaerobic UV-vis difference titration. It is filed as binding. This is another data set of the same source.
A further data set deals with O=C(O)CCCC(=O)C(=O)O. Briefly: purified protein. The following applies: Fe(II) active-site Fe(II) (MLCT transition).

Read-outs that look alike come from different tables or passages of the source.

T1 sequence (P32021 whole entry): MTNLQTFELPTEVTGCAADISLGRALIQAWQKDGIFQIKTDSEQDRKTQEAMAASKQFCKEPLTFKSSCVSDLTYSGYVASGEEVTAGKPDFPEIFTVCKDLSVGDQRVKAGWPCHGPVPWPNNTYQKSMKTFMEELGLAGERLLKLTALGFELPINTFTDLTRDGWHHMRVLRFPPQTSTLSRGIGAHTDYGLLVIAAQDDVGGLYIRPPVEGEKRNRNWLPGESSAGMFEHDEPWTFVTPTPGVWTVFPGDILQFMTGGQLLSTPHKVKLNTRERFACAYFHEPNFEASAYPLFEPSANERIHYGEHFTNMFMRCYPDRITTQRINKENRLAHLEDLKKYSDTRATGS

As for `O=C(O)CCC(=O)C(=O)O` [2OG, 2-oxoglutarate], in data set [1], the dissociation constant Kd was determined as 25 ± 7 µM. Regarding `N=C(N)NCCC[C@H](N)C(=O)O` [L-Arg, L-arginine], in data set [2], the dissociation constant (Kd) worked out at 34 ± 25 µM. On to “ethylene-forming enzyme (EFE) (Pseudomonas savastanoi pv. phaseolicola)”, for which, in the data set on O=C(O)CCCC(=O)C(=O)O, the Km was found to be 31 ± 4 µM and the kcat worked out at 0.00417 ± 0.000333 s⁻¹.

The record behind these values is paper PMC5444383 (Biochemistry, 2016).
